≈ marks a conversion by molar mass, not a printed value.
Assays:
[1] = stability in aqueous solutions; assay type: physicochemical
[2] = solubility in water (stirred 18 hours, filtrate analyzed by HPLC)
Procedure: After stirring, supernatant was filtered by a membrane filter (0.45,μm) and a filtate was analyzed by HPLC.
Colum: Taxil 5μ (4.6×250 mm), made by MetaChem
Solvent: MeOH/H2 O (80/20)
Detector: photodiode detector (230 nm)

[3] = system: tubulin; assay: microtubule depolymerization-inhibiting activity (absorbance at 350 nm after adding calcium chloride); assay type: biochemical; conditions: relative to paclitaxel; 5 μM
Procedure: Next, each of the above-described samples is mixed with tubulin (a main constituting protein of microtubule) and allowed to react at 37° C. for 15 minutes. Absorbance at 350 nm of the reaction solution was measured at 2, 5, 10 and 15 minutes after initiation of the reaction. Also, after the reaction ended, calcium chloride was added and, 5 minutes after this adding, absorbance at 350 nm was again measured. From each measured value was determined relative activity of each sample in the case that polymerization-promoting activity and depolymerization-inhibiting activity were taken as 100, and the results are shown in Table 2.

[4] = water, 18 h
[5] = literature, I. Ringer et al.; cited from earlier work

In the case of `CC(=O)O[C@H]1C(=O)[C@]2(C)[C@@H](OC(=O)COC3O[C@H](CO)[C@@H](O)[C@H](O)[C@H]3O)C[C@H]3OC[C@@]3(OC(C)=O)[C@H]2[C@H](OC(=O)c2ccccc2)[C@]2(O)C[C@H](OC(=O)[C@H](OC(=O)COC3O[C@H](CO)[C@@H](O)[C@H](O)[C@H]3O)[C@@H](NC(=O)c3ccccc3)c3ccccc3)C(C)=C1C2(C)C` (some centres unmarked) [2',7-S-paclitaxel, Diglucosyloxyacetyl-2',7-paclitaxel], the “stability in aqueous solutions” value [1] is reported as “decomposed to paclitaxel in aqueous solutions and unstable in aqueous solutions” and the solubility at 18 h [2] is reported as 0.0484 mg/mL (≈ 37.4 µM).

For `CC(=O)O[C@H]1C(=O)[C@@]2(C)[C@H]([C@H](OC(=O)c3ccccc3)[C@]3(O)C[C@H](OC(=O)[C@H](OC(=O)COC4O[C@H](CO)[C@@H](O)[C@H](O)[C@H]4O)[C@@H](NC(=O)c4ccccc4)c4ccccc4)C(C)=C1C3(C)C)[C@]1(OC(C)=O)CO[C@@H]1C[C@@H]2O` (some centres unmarked) [2'-S-paclitaxel, Glucosyloxyacetyl-2'-paclitaxel], the “stability in aqueous solutions” value [1] was “decomposed to paclitaxel in aqueous solutions and unstable in aqueous solutions” and the solubility at 18 h [2] was 0.0306 mg/mL (≈ 28.5 µM).

For `CC(=O)O[C@H]1C(=O)[C@]2(C)[C@@H](OC(=O)COC3O[C@H](CO)[C@@H](O)[C@H](O)[C@H]3O)C[C@H]3OC[C@@]3(OC(C)=O)[C@H]2[C@H](OC(=O)c2ccccc2)[C@]2(O)C[C@H](OC(=O)[C@H](O)[C@@H](NC(=O)c3ccccc3)c3ccccc3)C(C)=C1C2(C)C` (some centres unmarked) [7-S-paclitaxel, Glucosyloxyacetyl-7-paclitaxel], the solubility at 18 h [2] was 0.0147 mg/mL (≈ 13.7 µM) and the “depolymerization-inhibiting activity compared with paclitaxel (in words)” value [3] was “more than twice as potent as that of paclitaxel”.

With `CC(=O)O[C@H]1C(=O)[C@@]2(C)[C@H]([C@H](OC(=O)c3ccccc3)[C@]3(O)C[C@H](OC(=O)[C@H](O)[C@@H](NC(=O)c4ccccc4)c4ccccc4)C(C)=C1C3(C)C)[C@]1(OC(C)=O)CO[C@@H]1C[C@@H]2O` [Paclitaxel, paclitaxel] the Solubility [4] was 0.0004 mg/mL (≈ 0.468 µM).

In the case of `CC(=O)O[C@@]12CO[C@@H]1C[C@H](O)[C@@]1(C)C(=O)[C@H](O)C3=C(C)[C@@H](OC(=O)[C@H](O)[C@@H](NC(=O)OC(C)(C)C)c4ccccc4)C[C@@](O)([C@@H](OC(=O)c4ccccc4)[C@H]21)C3(C)C` [docetaxel], the “solubility in water relative to paclitaxel” value [5] is listed as 1.3 times.
